The target in data set [1] is PR^S17. The conditions noted are these: read-out: Ki for PR^S17; clinical inhibitors; cited from earlier work.
The target in data set [2] is HIV-1 protease (PR). The conditions noted are these: cited from earlier work.
The target in data set [3] is PR^S17. Briefly: Kinetic inhibition. To be noted: read-out: Ki for PR^S17; FRET-substrate (BACHEM H-2992), 37°C, pH 5.6. Format: biochemical, HIV-1.
Data set [4] relates to HIV-1. To be noted: read-out: antiviral IC50; MTT assay; cited from earlier work.
Data set [5] concerns PR dimerization. The conditions noted are these: relative to 1; cited from earlier work.
The conditions of data set [6]: compared to 1; cited from earlier work.

Where two headings read alike, the source gives them in different places.

Take `CC(C)CN(C[C@@H](O)[C@H](Cc1ccccc1)NC(=O)O[C@H]1CCOC1)S(=O)(=O)c1ccc(N)cc1` [amprenavir]: the Ki in data set [1] was 11 nM.
For the compound GRL-4410 [Compound 2], the values for the Ki in data set [2] and in data set [3] were 0.0029 nM and 15.8 ± 4.8 nM, respectively. Further, in data set [4], the half-inhibitory concentration (IC50) is 2.4 nM.
Turning to `CC(C)CN(C[C@@H](O)[C@H](Cc1cc(F)cc(F)c1)NC(=O)O[C@H]1C2COC3OCC1C3C2)S(=O)(=O)c1ccc2nc(NC3CC3)sc2c1` (stereo partly shown) [Compound 3, GRL-142], the “fold better inhibition of PR dimerization than 1” value in data set [5] is recorded as “around 1000 fold”. For the same compound, in data set [6], the “CNS penetration in vitro” value is listed as “better CNS penetration in vitro compared to 1”. In data set [3], the Ki turned out to be 17 ± 1.3 nM.

Usually Ki stands for the dissociation constant of the complex between target and ligand, obtained from inhibition or displacement. Broadly, the IC50 is the concentration needed to halve the response being measured.

Values taken from PMC8286348 (Biochemical and biophysical research communications, 2021).
